# Assay results published in the supplement of paper PMC4862054.
# Assays:
# Conditions in all cases: incubation time: 72 h
# DU-4475 [1] = experiment: normalised response (% of control), CellTox Green; higher = less cell death (100 = DMSO, 0 = benzethonium chloride kill control)
# Outline: (§1)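 Two readouts were taken after 72 h: CellTox Green fluorescence (485/520 nm) first, then CellTiter-Glo luminescence after 10 min at room temperature. Breast cancer cell lines had been seeded as 20 µl suspension into 384-well plates holding compound at 5 concentrations in 10-fold steps across a compound-specific 10,000-fold range. Each value is a normalised signal at a single concentration, with plates scaled to 0.1 % DMSO (100) and a positive kill control (0).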
# HCC1937 = experiment: as above
# Outline: as §1
# MDA-MB-468 = experiment: as above
# Outline: as §1
# MDA-MB-436 = experiment: as above
# Outline: as §1
# MFM-223 = experiment: as above
# Outline: as §1
# CAL-148 [2] = experiment: as above
# Outline: as §1
# Hs578T = experiment: as above
# Outline: as §1
# CAL-51 [3] = experiment: as above
# Outline: as §1
# CAL-85-1 [4] = experiment: as above
# Outline: as §1
# HDQ-P1 [5] = experiment: as above
# Outline: as §1
# HCC1143 = experiment: as above
# Outline: as §1
# CAL-120 = experiment: as above
# Outline: as §1
# MDA-MB-453 [6] = experiment: as above
# Outline: as §1
# DU-4475 [7] = experiment: normalised viability (% of control), CellTiter-Blue; higher = more viable cells (about 100 = DMSO control)
# Protocol: (§2)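 DSRT, CellTiter-Blue viability, 72 h incubation. Signal is normalised to DMSO and benzethonium chloride controls. Value is the normalised response at dose 7.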
# CAL-148 [8] = experiment: as above
# Protocol: as §2
# CAL-51 [9] = experiment: as above
# Protocol: as §2
# CAL-85-1 [10] = experiment: as above
# Protocol: as §2
# HDQ-P1 [11] = experiment: as above
# Protocol: as §2
# MDA-MB-453 [12] = experiment: as above
# Protocol: as §2
SMILES,normalised response (DU-4475 [1]),normalised response (HCC1937),normalised response (MDA-MB-468),normalised response (MDA-MB-436),normalised response (MFM-223),normalised response (CAL-148 [2]),normalised response (Hs578T),normalised response (CAL-51 [3]),normalised response (CAL-85-1 [4]),normalised response (HDQ-P1 [5]),normalised response (HCC1143),normalised response (CAL-120),normalised response (MDA-MB-453 [6]),normalised viability (DU-4475 [7]),normalised viability (CAL-148 [8]),normalised viability (CAL-51 [9]),normalised viability (CAL-85-1 [10]),normalised viability (HDQ-P1 [11]),normalised viability (MDA-MB-453 [12])
CC(C)C[C@H](NC(=O)[C@H](CCc1ccccc1)NC(=O)CN1CCOCC1)C(=O)N[C@@H](Cc1ccccc1)C(=O)N[C@@H](CC(C)C)C(=O)[C@@]1(C)CO1 [Carfilzomib] (100 nM),86.1%,32.5%,-95.8%,18.8%,32.8%,14.6%,46.7%,6.93%,-43%,-12.1%,82.7%,11.9%,90.1%,1.6%,2.75%,10.2%,3.69%,0.52%,12.1%
NC1(c2ccc(-c3nc4ccn5c(=O)[nH]nc5c4cc3-c3ccccc3)cc2)CCC1 [MK-2206] (100 nM),104%,63.5%,116%,107%,92%,109%,116%,117%,102%,108%,97.8%,101%,105%,92.7%,91.5%,100%,86.7%,82.9%,84.4%
CC(C)C(=O)Nc1ccc([N+](=O)[O-])c(C(F)(F)F)c1 [Flutamide] (1000 nM),99.8%,118%,144%,99.7%,99%,104%,108%,98.4%,101%,114%,99.2%,102%,102%,102%,104%,115%,84.2%,101%,90.1%
C[C@@H]1C[C@H]2[C@@H]3CCC4=CC(=O)C=C[C@]4(C)[C@@]3(F)[C@@H](O)C[C@]2(C)[C@@]1(O)C(=O)CO [Dexamethasone] (1000 nM),96%,106%,129%,81.5%,54.1%,,77.8%,110%,98.8%,56.1%,107%,98.4%,94.8%,106%,115%,101%,103%,117%,69.8%
